Experimental data published in patent US20240043797A1, “METHOD FOR MASS PRODUCTION OF HIGHLY PURE, STEM CELL-DERIVED EXTRACELLULAR VESICLE BY USING PEPTIDE” (INDUSTRY-ACADEMIC COOPERATION FOUNDATION, CHOSUN UNIVERSITY, priority 2020, published 2024).
Ends that are not written are not given here. Peptide text beside a SMILES is read from it.

How the values were obtained:
Assay type in all cases: cell-based
[1] = Viability of umbilical cord MSCs against eMTD peptide, absorbance analysis (ez-cytox, 450 nm; 'MTT assay')
Method: Mesenchymal stem cells derived from the umbilical cord (Wharton's jelly-derived MSCs, WJ-MSCs) were assayed for viability by treatment with the eMTD peptide at predetermined concentrations for predetermined periods of time. Tests were conducted with predetermined concentrations of the eMTD peptide. In this regard, umbilical cord-derived mesenchymal stem cells were seeded at a density of 2×10^4 cells/well into 24-well plates (30024, SPL). After 24 hours of incubation, the eMTD peptide in a sucrose buffer was applied at a final concentration of 0, 0.5, 1, 3, 5, 10, or 20 μM to the cells. The sucrose buffer contained glucose, sucrose, and 3-(N-morpholino)propanesulfonic acid [MOPS] at the respective concentrations shown in Table 2. After 15 minutes, the cells were incubated with ez-cytox (EZ-3000, DOGEN) for 30 to 60 minutes. Then, absorbance was read at 450 nm using a Bio-RAD x-Mark™ spectrophotometer (Bio-Rad Laboratories, USA). In addition, treatment with the eMTD peptide was conducted over various times. In this regard, umbilical cord-derived mesenchymal stem cells were seeded at a density of 2×10^4 cells/well into 24-well plates and incubated for 24 hours. Thereafter, the cells were treated with 1 μM of the eMTD peptide in the sucrose buffer for various periods of time (0, 5, 10, 15, 20, 25, or 30 minutes). After 15 minutes of treatment, the cells were incubated for 30 to 60 minutes with ez-cytox (EZ-3000, DOGEN). Absorbance was read at 450 nm using the Bio-RAD x-Mark™ spectrophotometer (Bio-Rad Laboratories, USA).

[2] = Viability of umbilical cord MSCs against eMTD peptide, cell counting with trypan blue (TB assay)
Method: To measure the number of cells, umbilical cord-derived mesenchymal stem cells were seeded at a density of 2.5×10^4 cells/well into 12-well plates (30012, SPL) and incubated for 24 hours. The eMTD peptide in the sucrose buffer of Table 2 was applied at a final concentration of 0, 0.5, 1.0, 3.0, 5.0, 10.0, or 20.0 μM to the cells. After 15 minutes, the cells were counted using a trypan blue solution. Separately, umbilical cord-derived mesenchymal stem cells were seeded at a density of 2.5×10^4 cells/well into 12-well plates (30012, SPL) and incubated for 24 hours. The cells were treated with the eMTD peptide in the sucrose buffer of Table 2 for various periods of time (0, 5, 10, 15, 20, 25, and 30 minutes). After each period, the cells were counted using a trypan blue solution, and the results are depicted in FIG. 2 and summarized in Tables 5 and 6.

mesenchymal stem cells = assay: Inhibitor assay: EV production after pretreatment with BAPTA-AM or ALLM; conditions: TS-eEV production; cells pretreated with 50 μM BAPTA-AM 1 hour or 10 μM ALLM 18 hours
Method: The cells were pretreated with 50 μM BAPTA-AM (calcium-selective chelator) for 1 hour and with 10 μM ALLM (calpain inhibitor) for 18 hours. Comparison was made of EV production outputs among the method used, and the results are shown in FIGS. 14a and 14b and Table 15.

Compound KLNFRQKLLNLISKLFCSGT [eMTD] has a viability at 5 min, 1 μM ([1]; MTT assay, 1 μM eMTD, time 5 min, read-out: Cell viability (%)) of 52.7%, a viability at 10 min, 1 μM ([1]; MTT assay, 1 μM eMTD, time 10 min, read-out: Cell viability (%)) of 41.8% and a viability at 15 min, 1 μM ([1]; MTT assay, 1 μM eMTD, time 15 min, read-out: Cell viability (%)) of 37%. The viability at 20 min, 1 μM ([1]; MTT assay, 1 μM eMTD, time 20 min, read-out: Cell viability (%)) was 29.4%, the viability at 25 min, 1 μM ([1]; MTT assay, 1 μM eMTD, time 25 min, read-out: Cell viability (%)) was 18.5% and the viability at 30 min, 1 μM ([1]; MTT assay, 1 μM eMTD, time 30 min, read-out: Cell viability (%)) was 17.8%. For the same compound, the viability at 15 minutes, 0.5 μM ([1]; MTT assay, eMTD 0.5 μM, 15 minutes, read-out: Cell viability (%)) was 53.9%, the viability at 15 minutes, 1 μM ([1]; MTT assay, eMTD 1.0 μM, 15 minutes, read-out: Cell viability (%)) was 57.4% and the viability at 15 minutes, 3 μM ([1]; MTT assay, eMTD 3.0 μM, 15 minutes, read-out: Cell viability (%)) was 13.6%. The viability at 15 minutes, 5 μM ([1]; MTT assay, eMTD 5.0 μM, 15 minutes, read-out: Cell viability (%)) was 5.8%, the viability at 15 minutes, 10 μM ([1]; MTT assay, eMTD 10.0 μM, 15 minutes, read-out: Cell viability (%)) was 2.9% and the viability at 15 minutes, 20 μM ([1]; MTT assay, eMTD 20.0 μM, 15 minutes, read-out: Cell viability (%)) was 4.1%. It also gave a viability at 15 minutes, 1 μM ([1]; cell viability) of ~50%, a viability at 15 minutes, 10 μM [2] of 0% and a viability at 15 minutes, 0.5 μM ([2]; umbilical cord-derived mesenchymal stem cells, TB assay, eMTD 0.5 μM, 15 minutes) of 66.7%. It also gave a viability at 15 minutes, 1 μM ([2]; umbilical cord-derived mesenchymal stem cells, TB assay, eMTD 1.0 μM, 15 minutes) of 66.3%, a viability at 15 minutes, 3 μM ([2]; umbilical cord-derived mesenchymal stem cells, TB assay, eMTD 3.0 μM, 15 minutes) of 21.9% and a viability at 15 minutes, 5 μM ([2]; umbilical cord-derived mesenchymal stem cells, TB assay, eMTD 5.0 μM, 15 minutes) of 11.2%. For the same compound, the viability at 15 minutes, 20 μM ([2]; umbilical cord-derived mesenchymal stem cells, TB assay, eMTD 20.0 μM, 15 minutes) was 2.1%, the viability at 5 min ([2]; umbilical cord-derived mesenchymal stem cells, TB assay, time 5 min) was 40% and the viability at 10 min ([2]; umbilical cord-derived mesenchymal stem cells, TB assay, time 10 min) was 29.7%. For the same compound, the viability at 15 min ([2]; umbilical cord-derived mesenchymal stem cells, TB assay, time 15 min) was 38.5%, the viability at 20 min ([2]; umbilical cord-derived mesenchymal stem cells, TB assay, time 20 min) was 35.9% and the viability at 25 min ([2]; umbilical cord-derived mesenchymal stem cells, TB assay, time 25 min) was 14.6%. For the same compound, the viability at 30 min ([2]; umbilical cord-derived mesenchymal stem cells, TB assay, time 30 min) was 15.6%.
For `CSCC[C@@H](C=O)NC(=O)[C@H](CC(C)C)NC(=O)[C@H](CC(C)C)NC(C)=O` [ALLM] (Ac-Leu-Leu-Met-aldehyde), the “EV production (particle number/cell)” value (mesenchymal stem cells) was 8.25 × 10^3 ± 9.96 × 10^2 particle number/cell.
For `CC(=O)OCOC(=O)CN(CC(=O)OCOC(C)=O)c1ccccc1OCCOc1ccccc1N(CC(=O)OCOC(C)=O)CC(=O)OCOC(C)=O` [BAPTA-AM], the “EV production (particle number/cell)” value (mesenchymal stem cells) was 7.34 × 10^3 ± 9.08 × 10^2 particle number/cell.
